Patent US20220204456A1, “COMPOUND FOR TREATING AUTOIMMUNE SKIN DISEASES CAUSED BY INFLAMMATION, AND USE THEREOF” (GenEros Biopharma Ltd., priority 2019, published 2022)
“Also recorded” adds a separate entry of the source.

Columns and labels:
[1] = Animal body weight in psoriasis model, Example 1; type: in vivo, BALB/c mice; conditions: for Statistical significance analysis of body weight: vs vehicle control group, t-test, DEX cream 70 mg external
Method: (§1) Female BALB/c mice (purchased from Shanghai SLACK Laboratory Animal Co., Ltd, administered at 6 weeks of age) were randomly divided into groups after adapting to the environment. Except for the normal control group, the rest of the animals received imiquimod ointment (5%) externally to induce the establishment of a psoriasis model. Specifically, the mice were shaved off same area of the back hair and applied with 62.5 mg of imiquimod ointment daily for seven consecutive days. Animals received different treatment programs, weighed daily, orally or externally applied with drugs once, and recorded with disease progression score.
(§2) Both the vehicle control group and the Nib1 treatment group received oral gavage of the same volume of drugs, formulated with 30% PEG300, and the Nib1 group was given a dose of 10 mg/kg. Dexamethasone ointment was used as a positive treatment drug and received 70 mg smear treatment once a day. The disease progression score is evaluated on a scale of 0-4 based on three indicators, rash, peeling, and thickening (0: no symptoms; 1: mild symptoms; 2: moderate symptoms; 3: significant symptoms; 4: very significant symptoms). At the end of the experiment, the animals were sacrificed, and pathological section analysis was performed on the skin samples of the back lesions.

[2] = Animal body weight in psoriasis model, Example 2 (external application); type: in vivo, BALB/c mice; conditions: 70 mg external once a day for 7 days
Method: After adapting to the environment, female BALB/c mice were randomly divided into groups. Except for the normal control group, the rest received external treatment with imiquimod ointment (5%) to induce the establishment of a psoriasis model. Specifically, the mice were shaved off the same area (2×3 cm) of back hair and applied with 62.5 mg ointment daily for seven consecutive days. The animals received different treatments, weighed daily, received 70 mg smear treatment once, and recorded with disease progression score. The disease progression score is evaluated on a scale of 0-4 based on three indicators, rash, peeling, and thickening (0: no symptoms; 1: mild symptoms; 2: moderate symptoms; 3: significant symptoms; 4: very significant symptoms). At the end of the experiment, the animals were sacrificed, and pathological section analysis was performed on the skin samples of the back lesions.

psoriasis model [3] = assay: Clinical scoring (rash, peeling, thickening) in imiquimod-induced psoriasis model, Example 1; type: in vivo, BALB/c mice; conditions: for statistical significance analysis of rash scores / statistical significance analysis of skin thickening scores / statistical significance analysis of total clinical scores / statistical significance analysis of peeling scores: vs vehicle control group, t-test, Nib1 10 mg/kg oral, DEX cream 70 mg external
Method: as §1, §2
The clinical scoring of three indicators including skin rash, peeling and thickening were recorded and shown as statistical average value and ±standard error by day.

[4] = J Neurol Neurosurg Psychiatry 1986;49:791-795; cited from earlier work
psoriasis model [5] = assay: Pathological section analysis and scoring of back lesion skin, Example 1; type: in vivo, BALB/c mice; conditions: Nib1 10 mg/kg oral
Method: as §2
The pathological sections of animal skin were stained with eosin. Three samples were selected for each group.

[6] = Nib1 10 mg/kg oral once a day, vs model group

Row | Structure (SMILES) | statistical significance analysis of rash scores (psoriasis model [3]; day 1) | statistical significance analysis of skin thickening scores (psoriasis model [3]; day 1) | statistical significance analysis of total clinical scores (psoriasis model [3]; day 1) | statistical significance analysis of rash scores (psoriasis model [3]; day 2) | statistical significance analysis of total clinical scores (psoriasis model [3]; day 2) | statistical significance analysis of peeling scores (psoriasis model [3]; day 3) | statistical significance analysis of rash scores (psoriasis model [3]; day 3) | statistical significance analysis of skin thickening scores (psoriasis model [3]; day 3) | statistical significance analysis of total clinical scores (psoriasis model [3]; day 3) | statistical significance analysis of peeling scores (psoriasis model [3]; day 4) | statistical significance analysis of skin thickening scores (psoriasis model [3]; day 4) | statistical significance analysis of total clinical scores (psoriasis model [3]; day 4) | statistical significance analysis of peeling scores (psoriasis model [3]; day 5) | statistical significance analysis of skin thickening scores (psoriasis model [3]; day 5) | statistical significance analysis of total clinical scores (psoriasis model [3]; day 5) | statistical significance analysis of peeling scores (psoriasis model [3]; day 6) | statistical significance analysis of skin thickening scores (psoriasis model [3]; day 6) | statistical significance analysis of total clinical scores (psoriasis model [3]; day 6) | further results
1 | C[C@@H]1C[C@H]2[C@@H]3CCC4=CC(=O)C=C[C@]4(C)[C@@]3(F)[C@@H](O)C[C@]2(C)[C@@]1(O)C(=O)CO [DEX, Dexamethasone] | ** (** p < 0.01) | **** (**** p < 0.0001) | **** (**** p < 0.0001) | **** (**** p < 0.0001) | **** (**** p < 0.0001) | **** (**** p < 0.0001) | **** (**** p < 0.0001) | **** (**** p < 0.0001) | **** (**** p < 0.0001) | **** (**** p < 0.0001) | **** (**** p < 0.0001) | **** (**** p < 0.0001) | **** (**** p < 0.0001) | **** (**** p < 0.0001) | **** (**** p < 0.0001) | **** (**** p < 0.0001) | **** (**** p < 0.0001) | **** (**** p < 0.0001) | body weights of the animals ([1]; Example 1, 7 days, Nib1 10 mg/kg oral, dexamethasone ointment 70 mg topical, once a day): significantly reduced; Statistical significance analysis of body weight ([1]; day 1, Nib1 10 mg/kg oral): * (* p < 0.05); Statistical significance analysis of body weight ([1]; day 4, Nib1 10 mg/kg oral): * (* p < 0.05); Statistical significance analysis of body weight ([1]; day 5, Nib1 10 mg/kg oral): ** (** p < 0.01); Statistical significance analysis of body weight ([1]; day 6, Nib1 10 mg/kg oral): **** (**** p < 0.0001); Statistical significance analysis of body weight ([1]; day 7, Nib1 10 mg/kg oral): **** (**** p < 0.0001); weight loss [2]: more than 25%; statistical significance analysis of skin thickening scores (psoriasis model [3]; day 2): **** (**** p < 0.0001); statistical significance analysis of rash scores (psoriasis model [3]; day 4): **** (**** p < 0.0001); statistical significance analysis of rash scores (psoriasis model [3]; day 5): **** (**** p < 0.0001); statistical significance analysis of rash scores (psoriasis model [3]; day 6): **** (**** p < 0.0001); statistical significance analysis of peeling scores (psoriasis model [3]; day 7): *** (*** p < 0.001); statistical significance analysis of rash scores (psoriasis model [3]; day 7): **** (**** p < 0.0001); statistical significance analysis of skin thickening scores (psoriasis model [3]; day 7): **** (**** p < 0.0001); statistical significance analysis of total clinical scores (psoriasis model [3]; day 7): **** (**** p < 0.0001)
2 | O=c1[nH]c2ccccc2n1C1CCN(CCCC(c2ccc(F)cc2)c2ccc(F)cc2)CC1 [Nib1, Pimozide] | **** (**** p < 0.0001) | ** (** p < 0.01) | **** (**** p < 0.0001) | * (* p < 0.05) | ** (** p < 0.01) | *** (*** p < 0.001) | ** (** p < 0.01) | * (* p < 0.05) | **** (**** p < 0.0001) | *** (*** p < 0.001) | *** (*** p < 0.001) | **** (**** p < 0.0001) | **** (**** p < 0.0001) | *** (*** p < 0.001) | *** (*** p < 0.001) | ** (** p < 0.01) | ** (** p < 0.01) | ** (** p < 0.01) | systemic risks on long-term use [4]: has not shown systemic risks; toxic and side effect (judged from body weight) ([1]; mouse, in vivo, po, 10 mg/kg): significantly less than that of dexamethasone; pathological section findings (epidermal hyperplasia, immune cell infiltration) (psoriasis model [5]; stained skin sections, 100x): improve epidermal hyperplasia and reduce immune cell infiltration; remission effect by pathological section score (psoriasis model [5]; scoring system of Table 2, p<0.01 vs vehicle control, one-way ANOVA): 32.5%; remission by area under the clinical total score curve (AUC) (psoriasis model [3]; Nib1 10 mg/kg oral once a day for 7 days, compared with the disease model group): 32.2%; total score of the three clinical indicators (psoriasis model [3]; Nib1 10 mg/kg oral once a day, vs disease model group, 10 mg/kg): significantly lower clinical symptoms than the disease model group; also recorded: significantly reduce the clinical symptoms of psoriasis; peeling clinical score (psoriasis model [3]; [6]): significantly reduce the peeling phenomenon; skin thickening clinical score (psoriasis model [3]; [6]): significantly reduced on the 4th, 5th, and 6th days; rash clinical score (psoriasis model [3]; Nib1 10 mg/kg oral once a day, vs model group, significantly different in the first three days): slightly reduced rash
